Results on two molecules are retold here after patent US7888355B2, “Compositions and methods for inhibiting growth and metastasis of melanoma” (Burnham Institute for Medical Research, priority 2007, dated 2011).

One assay relates to SW1 cells. Briefly: cells. Type of assay: cell-based, mouse. The following applies: for effect of JNK inhibitor SP600125 on compound-induced cell death: 30-minute pretreatment with SP600125 (10 μM), then compound 20 h. The procedure: Cell lines. Mouse melanoma (SW1) and human melanoma (LU1205) cells were maintained in DMEM supplemented with 10% FBS, L-glutamine and antibiotics. The human melanoma cell lines MEWO and WM115 were maintained in RPMI supplemented with 10% FBS and antibiotics. Primary mouse melanocytes were cultured in F-12 media supplemented with 10% FBS, antibiotics, IBMX (isobuthyl-methylxantine), bovine pituitary extract, and TPA.
Mitochondrial activity and apoptosis. Cells were exposed to the chemicals for 12-48 hours as indicated in Results. To measure changes in mitochondrial activity reflective of general cell viability, the ATPLITE ATP detection assay was used according to the manufacturer's recommendations (Perkin Elmer). Apoptosis analysis was performed by flow cytometry of PI-stained cells. The percentage of cells to the left of the diploid G0/1 peak, characteristic of hypodiploid cells that have partially lost DNA, was calculated as percentage of apoptotic cells (Bhoumik et al., PNAS 101:4222-7, 2004). Analysis of changes in Caspase 8 expression pattern was performed using immunoblot analysis. […]
Characterization of CSL and AIGA effects on mouse melanoma cells. The structures of AIGA and CSL are depicted in FIGS. 1a and 1b. AIGA was tested for cytotoxicity at concentrations ranging between 0.1 and 2 μM, whereas CSL was used at a concentration of 0.01 to 0.3 μM. SW1 cells or normal melanocytes were seeded on 96 well plates and 24 h late, cells were treated with the indicated concentrations of ATF2 50-100 peptide, AIGA, or CSL for 20 h. ATF2 50-100 peptide (cloned in mammalian expression vector in frame with penetratin was transfected with the aid of lipofectamine) was used as a positive control. ATP levels were used as an indicator of cell viability and were measured using the ATPLITE ATP detection assay kit. The number of surviving cells upon AIGA treatment was normalized to the number of surviving cells under the control treatment, and the normalized number was designated as the “% Viability.” Results shown in FIGS. 1c-1f represent 3 experiments. Treatment of SW1 melanoma cells with 1 μM of AIGA reduced the viability of melanoma cells to 10%, (FIG. 1c). Treatment of the SW1 cells with 0.05 μM of CSL reduced the viability of melanoma cells to 50%, and 0.1 μM reduced it to 10% (FIG. 1d). […] Normal melanocytes and fibroblasts were used as a control.
Thus, the two compounds were evaluated to determine if they require JNK activity for their effects on melanoma cells. To this end, the ability of AIGA or CSL to affect the viability of melanoma cells in the presence of a JNK inhibitor was tested. SW1 cells, with or without a 30-minute pretreatment with the JNK inhibitor SP600125 (10 μM), were contacted with AIGA or CSL at the indicated concentrations for 20 h. ATP levels were used to measure the cell viability using the ATPLITE kit. The number of surviving cells upon AIGA or CSL treatment was normalized to the number of surviving cells under the control treatment, and the normalized number was designated as the “% Viability.” Shown are representative results from 2 experiments. […] Of note, inhibition of JNK activity was more pronounced at lower concentrations of CSL compared with AIGA. […] To assess whether these compounds affect JNK activity, changes in JNK phosphorylation on residues 183/185, which are required for its kinase activity, were monitored. Western blot analysis for JNK phosphorylation on residues 183/185 was performed on protein extracts that were prepared from cells treated with AIGA at concentrations of 0.5 μM, 1.0 μM, and 2.0 μM and a control with no AIGA treatment. Duplicate samples were treated with JNK inhibitor (SP600125). Total level of JNK was analyzed in parallel. […]

The test system of assay [1] is JNK phosphorylation on residues 183/185. In words: Western blot for JNK phosphorylation in SW1 cells. It counts as cell-based, mouse. The following applies: 0.5, 1.0, 2.0 μM. The procedure: Immunoblot analysis. Proteins prepared from cells at the indicated time points using RIPA buffer and 75 μg were separated on SDS-PAGE followed by immunoblot analysis using the antibodies indicated. Antibodies used were as follows: anti-JNK (Santa Cruz), phospho-JNK (Promega Corp.; Madison, Wis.), phospho c-Jun (Cell Signaling Technology, Inc.; Danvers, Mass.), c-Jun (Santa Cruz Biotechnology, Inc.; Santa Cruz, Calif.) and Caspase 8 (BD Biosciences; San Jose, Calif.).
Thus, the two compounds were evaluated to determine if they require JNK activity for their effects on melanoma cells. To this end, the ability of AIGA or CSL to affect the viability of melanoma cells in the presence of a JNK inhibitor was tested. SW1 cells, with or without a 30-minute pretreatment with the JNK inhibitor SP600125 (10 μM), were contacted with AIGA or CSL at the indicated concentrations for 20 h. ATP levels were used to measure the cell viability using the ATPLITE kit. […] To assess whether these compounds affect JNK activity, changes in JNK phosphorylation on residues 183/185, which are required for its kinase activity, were monitored. […] Total level of JNK was analyzed in parallel. […]
A general note: Immunoblotting shows a protein as a band on a membrane.

Broadly, the viability is a per cent measure of how many cells are alive, often set against a control. On to `CC(=O)Oc1c2c(c(CC=C(C)C)c3c1C(=O)C1=C[C@@H]4CC5C(C)(C)OC(C/C=C(\C)C(=O)O)(C4=O)[C@@]15O3)OC(C)(CCC=C(C)C)C=C2` (some centres unmarked) [AIGA, Acetyl isogambogic acid], for which the “effect of JNK inhibitor SP600125 on compound-induced cell death” value with SW1 cells was “attenuated the ability of AIGA or CSL to elicit the cell death”. In the assay with SW1 cells (Mus musculus, 20 h, read-out: % Viability of SW1 melanoma cells), the viability at 1 µM worked out at 10%. The “phosphorylation of JNK on residues 183/185” value in assay [1] is reported as “induced phosphorylation of JNK”.

The EC50 is the concentration that produces a half-maximal response. With `CC1=C(O)C(=O)C=C2C1=CC=C1[C@@]2(C)CC[C@@]2(C)[C@@H]3C[C@](C)(C(=O)O)CC[C@]3(C)CC[C@]12C` [Celastrol], the “effect of JNK inhibitor SP600125 on compound-induced cell death” value in the assay with SW1 cells is listed as “attenuated the ability of AIGA or CSL to elicit the cell death”. For the same molecule, the viability at 0.05 µM in the assay with SW1 cells (Mus musculus, 0.05 μM, 20 h, read-out: % Viability of SW1 melanoma cells) was determined as 50%. Besides, the viability at 0.1 µM in the assay on SW1 cells (Mus musculus, 0.1 μM, 20 h, read-out: % Viability of SW1 melanoma cells) worked out at 10%. For the same molecule, in the assay on SW1 cells (Mus musculus, numeric EC50 cells of the column, read-out: Activity or EC50 (μM) in SW1 cells), the EC50 is approximately 0.1 µM. Also, the “phosphorylation of JNK on residues 183/185” value in assay [1] is on record as “induced phosphorylation of JNK”.
